# Results published in patent US9730938B2, “Bruton's tyrosine kinase inhibitor combinations and uses thereof” (Pharmacyclics LLC, priority 2014, dated 2017).
# Experiments:
# Assay in all cases: Combined drug treatment cell viability, CellTiter-Glo assay (Example 1)
# Type in all cases: cell-based
# Conditions in all cases: 3 days
# [1] = system: OCI-LY-10
# Experimental: (§1) DLBCL cells at either 1×10^4 cells or 2×10^4 cells were plated onto each well of a 96-W plate (Table 1).
# (§2) The stock solutions for the IDH1 inhibitor AGI5198 and the MALT1 inhibitor MI-2 were each prepared at 50 mM concentration.
# (§3) The 96-W plate was then incubated for 3 days. Cell viability was examined using a CellTiter-Glo assay.
# (§4) A 40 μL of CellTiter-Glo reagent was added directly into each well of the 96-W plate. The plate was then shaken on a Shaker (Labsystem Wellmix) at speed 5 for 10-20 min at room temperature. Next, 100 μL of the mixed medium was transferred to a white, non-transparent, flat bottom 96-W plate for assaying. A Flexstation 3 luminometer was used for detecting and measuring the luminescent signals. Measurements were taken at room temperature.
# (§5) In general, the combination is described as synergistic (CI<1), additive (CI=1), or antagonistic (CI>1). Synergism is further separated into very strong synergism (<0.1), strong synergism (0.1-0.3), synergism (0.3-0.7), moderate synergism (0.7-0.85), and slight synergism (0.85-0.9).
# [2] = system: OCI-LY-3
# Experimental: as §1, §2, §3, §4, §5
# [3] = system: SU-DHL-2
# Experimental: as §1, §2, §3, §4, §5
# [4] = system: TMD8
# Experimental: as §1, §2, §3, §4, §5
# [5] = system: U2932
# Experimental: as §1, §2, §3, §4, §5
# [6] = ibrutinib 0 nM, IDH1i 10 uM / MALT1i 5 uM alone
# [7] = ibrutinib 0.0256 nM, IDH1i 10 uM / MALT1i 5 uM / medium alone
# [8] = ibrutinib 0.128 nM, IDH1i 10 uM / MALT1i 5 uM / medium alone
# [9] = ibrutinib 0.64 nM, IDH1i 10 uM / MALT1i 5 uM / medium alone
# [10] = ibrutinib 3.2 nM, IDH1i 10 uM / MALT1i 5 uM / medium alone
# [11] = ibrutinib 16 nM, IDH1i 10 uM / MALT1i 5 uM / medium alone
# [12] = ibrutinib 80 nM, IDH1i 10 uM / MALT1i 5 uM / medium alone
# [13] = ibrutinib 400 nM, IDH1i 10 uM / MALT1i 5 uM / medium alone
# [14] = ibrutinib 2000 nM, IDH1i 10 uM / MALT1i 5 uM / medium alone
# [15] = ibrutinib 10000 nM, IDH1i 10 uM / MALT1i 5 uM / medium alone
# [16] = ibrutinib 0 nM, IDH1i 10 uM / MALT1i 200 nM alone
# [17] = ibrutinib 0.0256 nM, IDH1i 10 uM / MALT1i 200 nM / medium alone
# [18] = ibrutinib 0.128 nM, IDH1i 10 uM / MALT1i 200 nM / medium alone
# [19] = ibrutinib 0.64 nM, IDH1i 10 uM / MALT1i 200 nM / medium alone
# [20] = ibrutinib 3.2 nM, IDH1i 10 uM / MALT1i 200 nM / medium alone
# [21] = ibrutinib 16 nM, IDH1i 10 uM / MALT1i 200 nM / medium alone
# [22] = ibrutinib 80 nM, IDH1i 10 uM / MALT1i 200 nM / medium alone
# [23] = ibrutinib 400 nM, IDH1i 10 uM / MALT1i 200 nM / medium alone
# [24] = ibrutinib 2000 nM, IDH1i 10 uM / MALT1i 200 nM / medium alone
# [25] = ibrutinib 10000 nM, IDH1i 10 uM / MALT1i 200 nM / medium alone
smiles,measurement,setting,value
Cc1ccccc1C(C(=O)NC1CCCCC1)N(C(=O)Cn1ccnc1C)c1cccc(F)c1 (centres unmarked) [AGI5198],luminescence (CellTiter-Glo),[1]; [6],54469.95
same,luminescence (CellTiter-Glo),[1]; [7],60402.37
same,luminescence (CellTiter-Glo),[1]; [8],45182.13
same,luminescence (CellTiter-Glo),[1]; [9],49163.38
same,luminescence (CellTiter-Glo),[1]; [10],37017.16
same,luminescence (CellTiter-Glo),[1]; [11],22951.32
same,luminescence (CellTiter-Glo),[1]; [12],21796.92
same,luminescence (CellTiter-Glo),[1]; [13],22543.73
same,luminescence (CellTiter-Glo),[1]; [14],22738.32
same,luminescence (CellTiter-Glo),[1]; [15],21999.40
same,luminescence (CellTiter-Glo),[2]; [6],61813.89
same,luminescence (CellTiter-Glo),[2]; [7],60845.63
same,luminescence (CellTiter-Glo),[2]; [8],58171.75
same,luminescence (CellTiter-Glo),[2]; [9],64267.34
same,luminescence (CellTiter-Glo),[2]; [10],61774.53
same,luminescence (CellTiter-Glo),[2]; [11],63970.82
same,luminescence (CellTiter-Glo),[2]; [12],65372.05
same,luminescence (CellTiter-Glo),[2]; [13],68413.28
same,luminescence (CellTiter-Glo),[2]; [14],66282.58
same,luminescence (CellTiter-Glo),[2]; [15],58163.88
same,luminescence (CellTiter-Glo),[3]; [16],124126.7
same,luminescence (CellTiter-Glo),[3]; [17],130906.9
same,luminescence (CellTiter-Glo),[3]; [18],145229.1
same,luminescence (CellTiter-Glo),[3]; [19],142615.3
same,luminescence (CellTiter-Glo),[3]; [20],156751.0
same,luminescence (CellTiter-Glo),[3]; [21],152240.5
same,luminescence (CellTiter-Glo),[3]; [22],152613.5
same,luminescence (CellTiter-Glo),[3]; [23],145121.4
same,luminescence (CellTiter-Glo),[3]; [24],149634.6
same,luminescence (CellTiter-Glo),[3]; [25],50666.3
same,luminescence (CellTiter-Glo),"[4]; ibrutinib 0 nM, IDH1i 10 uM / MALT1i 100 nM alone",75993.70
same,luminescence (CellTiter-Glo),"[4]; ibrutinib 0.0256 nM, IDH1i 10 uM / MALT1i 100 nM / medium alone",25500.80
same,luminescence (CellTiter-Glo),"[4]; ibrutinib 0.128 nM, IDH1i 10 uM / MALT1i 100 nM / medium alone",25788.09
same,luminescence (CellTiter-Glo),"[4]; ibrutinib 0.64 nM, IDH1i 10 uM / MALT1i 100 nM / medium alone",22928.31
same,luminescence (CellTiter-Glo),"[4]; ibrutinib 3.2 nM, IDH1i 10 uM / MALT1i 100 nM / medium alone",23004.75
same,luminescence (CellTiter-Glo),"[4]; ibrutinib 16 nM, IDH1i 10 uM / MALT1i 100 nM / medium alone",22519.77
same,luminescence (CellTiter-Glo),"[4]; ibrutinib 80 nM, IDH1i 10 uM / MALT1i 100 nM / medium alone",22451.24
same,luminescence (CellTiter-Glo),"[4]; ibrutinib 400 nM, IDH1i 10 uM / MALT1i 100 nM / medium alone",19936.75
same,luminescence (CellTiter-Glo),"[4]; ibrutinib 2000 nM, IDH1i 10 uM / MALT1i 100 nM / medium alone",19649.45
same,luminescence (CellTiter-Glo),"[4]; ibrutinib 10000 nM, IDH1i 10 uM / MALT1i 100 nM / medium alone",9604.64
same,luminescence (CellTiter-Glo),[5]; [16],52209.68
same,luminescence (CellTiter-Glo),[5]; [17],47490.41
same,luminescence (CellTiter-Glo),[5]; [18],48958.10
same,luminescence (CellTiter-Glo),[5]; [19],45155.81
same,luminescence (CellTiter-Glo),[5]; [20],46620.86
same,luminescence (CellTiter-Glo),[5]; [21],43920.00
same,luminescence (CellTiter-Glo),[5]; [22],43730.28
same,luminescence (CellTiter-Glo),[5]; [23],45769.76
same,luminescence (CellTiter-Glo),[5]; [24],43047.82
same,luminescence (CellTiter-Glo),[5]; [25],31970.32
